Measured values from US11938135B2, “Compositions and methods for treating vascular Ehlers Danlos syndrome and associated disorders” (The Johns Hopkins University, priority 2018, dated 2024).
Entries after “also recorded” stand apart in the source; their conditions may differ.

Tests used:
[1] = system: vEDS mice, first 30 days postpartum; assay: Postpartum survival of lactating vEDS mice (pregnancy/breastfeeding model); assay type: in vivo, mouse
Description: Previously, it was shown that pregnancy-associated aortic dissection is largely driven by lactation-associated oxytocin release and oxytocin-induced ERK signaling in MFS mouse aortas^11. Thus, oxytocin-induced ERK signaling was used as a method to test whether activation of the PLC/IP3/PKC/ERK axis would worsen the risk of aortic dissection.
Oxytocin-induced ERK signaling was used as a method to test the hypothesis that activation of the PLC/IP3/PKC/ERK axis would worsen the risk of aortic dissection.

vEDS mice = assay: Survival of drug-treated vEDS mice (death due to aortic dissection); assay type: in vivo, mouse; settings: for survival rate: after about 30 days (1 month) of treatment; for protection from dissection or death: vEDS mice, dose not stated (early data)
Experimental: Novel knock-in glycine substitution (Col3a1 G209S/+ and Col3a1 G938D/+) vEDS mice were created using CRISPR/Cas9.
To introduce each mutation, 3 guide RNAs (tracrRNA+crRNA) were designed to target the DNA regions flanking the intended mutation site. A DNA oligo repair template (ssDNA oligo) was also designed that included homologous sequences upstream and downstream of the target region, as well as the intended mutation. Pronuclear injection of one-cell C57BL/6J embryos was performed by the JHU Transgenic Core using standard microinjection techniques using a mix of Cas9 protein, tracrRNA, crRNA, and ssDNA oligo diluted in RNAse free injection buffer. Injected embryos were transferred into the oviducts of pseudopregnant ICR females using established techniques. Sanger sequencing of the site was utilized to confirm introduction of the mutation, and the mice were backcrossed for at least 4 generations to eliminate off-target effects. For the G209S mouse, the mutation introduced was c.625_626 GG>TC, corresponding to p.Gly210Ser in humans. For the G938D mouse, the mutation introduced was c.2813G>A, corresponding to […] in humans. The Wild-type Human Col3a1 mRNA NCBI Accession No: NM_000090.3; the wild-type Mouse Col3a1 mRNA NCBI Accession No.: NM_009930.2.
Pharmacological ERK antagonists were tested to support the role of ERK activation in the pathogenesis of vEDS and as a method to identify therapeutic strategies for vEDS. Mice were treated with cobimetinib [GDC-0973, RO5514041] (2 mg/kg/day), an FDA-approved inhibitor of MEK, the kinase that activates ERK^8. It was hypothesized that if ERK activation was truly driving disease risk, ERK inhibition would rescue the risk of death from aortic dissection.
Next, further studies were performed to test agents that inhibit PKC activation. Mice were treated with ruboxistaurin [LY 333531] […] It was hypothesized that if ERK activation, and thereby disease risk, was driven by PLC/IP3/PKC activation, a pharmacologic PKC inhibitor would also rescue the risk of death from aortic dissection.
Further studies were performed to test other medications that inhibit this signaling cascade.

129 MFS mice = assay: Aortic root growth in Marfan syndrome mice; assay type: in vivo, mouse; settings: ruboxistaurin 10 mg/kg/d, p=2E-4
Description: In examples, different PKC-β inhibitors are used for the treatment of Marfan Syndrome. For example, treatment of Marfan Syndrome may include administration of ruboxistaurin. […] In other examples, treatment of Marfan Syndrome includes administration of enzastaurin or sotrastaurin.

[2] = Blood pressure / hemodynamic stress in treated vEDS mice; assay type: in vivo, mouse; settings: for effect on blood pressure: doses as in the survival studies; for hemodynamic stress: dose not stated
patients with vEDS = settings: small human study; cited from earlier work
Col3a1^G209S/+ mice = assay: Risk of aortic dissection in Col3a1 G209S/+ mice; assay type: in vivo, mouse; settings: celiprolol; Col3a1 G209S/+ mutation
Description: Others have proposed^5-8 that vEDS phenotypes are a result of chronically “weak” tissue and therefore propose that decreasing blood pressure with beta-adrenergic receptor blockers should decrease the risk of aortic rupture in these patients. […] Since this was not common to all β antagonists, this observation could be driven by celiprolol's β2 agonism activity.

MFS mice = settings: cited from earlier work

Molecule `CC(=O)Nc1cccc(-n2c(=O)n(C3CC3)c(=O)c3c(Nc4ccc(I)cc4F)n(C)c(=O)c(C)c32)c1` [trametinib] has a survival postpartum ([1]; trametinib 1 mg/kg/day, first 30 days postpartum, 60% lethality untreated) of 95%.

With `CCOC(=O)N[C@@H]1CC[C@@H]2[C@@H](C1)C[C@H]1C(=O)O[C@H](C)[C@H]1[C@H]2/C=C/c1ccc(-c2cccc(F)c2)cn1` [vorapraxar] the impact on survival (vEDS mice; vorapraxar 1 mg/kg/d) was “no impact on survival”.

With `CC(=O)S[C@@H]1CC2=CC(=O)CC[C@]2(C)[C@H]2CC[C@@]3(C)[C@@H](CC[C@@]34CCC(=O)O4)[C@H]12` [spironolactone] the survival (vEDS mice; spironolactone alone 100 mg/kg/d) was about 80%.

For `CN(C)C[C@@H]1CCn2cc(c3ccccc32)C2=C(C(=O)NC2=O)c2cn(c3ccccc23)CCO1` [ruboxistaurin, (9S)-9-[(dimethylamino)methyl]-6,7,10,11-tetrahydro-9H,18H-5,21:12,17-di(metheno)dibenzo[e,k]pyrrolo[3,4-h][1,4,13]oxadiazacyclohexadecine-18,20-dione], the aortic root growth (129 MFS mice) was “reduces aortic root growth; also recorded: rescued the aortic root growth”, the “effect on blood pressure” value [2] was “Neither cobimetinib nor ruboxistaurin had an effect on blood pressure” and the survival (vEDS mice; ruboxistaurin 10 mg/kg/day, after 39 days of treatment, 55% survival with no treatment) was 100%.

Work on `COc1ccccc1Oc1c(NS(=O)(=O)c2ccc(C(C)(C)C)cc2)nc(-c2ncccn2)nc1OCCO` [bosentan] yielded a survival (vEDS mice; bosentan 100 mg/kg/d, after 40 days of treatment, 50% survival in untreated vEDS mice, p=0.0298) of 80%.

In the case of `NNc1nncc2ccccc12` [hydralazine], the survival postpartum ([1]; hydralazine 16 mg/kg/day, first 30 days postpartum, 60% lethality untreated) is reported as 95%, the survival (vEDS mice; hydralazine 32 mg/kg/d, at 45 days of age, the median survival for an untreated vEDS mouse) is reported as 98% and the “survival in male mice” value (vEDS mice; hydralazine-only (32 mg/kg/d) treated male mice) is reported as 24%.

With `Cn1cc(C2=C(c3cn(C4CCN(Cc5ccccn5)CC4)c4ccccc34)C(=O)NC2=O)c2ccccc21` [enzastaurin, 3-(1-Methylindol-3-yl)-4-[1-[1-(pyridin-2-ylmethyl)piperidin-4-yl]indol-3-yl]pyrrole-2,5-dione] the survival (vEDS mice; enzastaurin 60 mg/kg/d, after 40 days of treatment, 50% of untreated vEDS mice, p=0.0305) was 80% and the survival rate (vEDS mice; enzastaurin about 30 mg/kg/day orally) was “about 100%”.

In the case of des Gly-NH2,d(CH2)5[D-Tyr2,Thr4]OVT, the survival postpartum ([1]; oxytocin receptor antagonist, first 30 days postpartum, mice still lactating) is reported as 95%.

With `CC(C)NCC(O)COc1ccc(CC(N)=O)cc1` (stereo not drawn) [atenolol] the “effect on blood pressure” value [2] was “decreases in blood pressure” and the improvement in survival (vEDS mice; atenolol 120 mg/kg/d) was “none of these manipulations lead to an improvement in survival”.

For `CCN(CC)C(=O)Nc1ccc(OCC(O)CNC(C)(C)C)c(C(C)=O)c1` (stereo not drawn) [celiprolol], the “adverse events in patients with vEDS” value (patients with vEDS) is listed as “potential to delay adverse events”, the “risk of aortic dissection” value (Col3a1^G209S/+ mice) is listed as “increased risk of aortic dissection” and the hemodynamic stress [2] is listed as “achieved the predicted lowering of hemodynamic stress”. The “effect on blood pressure” value [2] was “decreases in blood pressure”, the improvement in survival (vEDS mice; celiprolol 200 mg/kg/d) was “none of these manipulations lead to an improvement in survival” and the “risk of aortic dissection” value (vEDS mice; celiprolol 200 mg/kg/d, vEDS mouse models) was “accelerated the risk of aortic dissection”. For the same molecule, the “protection from dissection or death” value (vEDS mice) was “significant acceleration of dissection and death”.

For `CN1CCN(c2nc(C3=C(c4c[nH]c5ccccc45)C(=O)NC3=O)c3ccccc3n2)CC1` [sotrastaurin], the survival rate (vEDS mice; sotrastaurin about 30 mg/kg/day orally) was “about 100%”.

With `COC(=O)c1ccc2c(c1)NC(=O)/C2=C(\Nc1ccc(N(C)C(=O)CN2CCN(C)CC2)cc1)c1ccccc1` [nintedanib] the impact on survival (vEDS mice; nintedanib 50 mg/kg/d) was “no impact on survival”.

For `CCCCc1nc(Cl)c(CO)n1Cc1ccc(-c2ccccc2-c2nn[nH]n2)cc1` [losartan], the “aortic disease in MFS mice” value (MFS mice; MFS mice, literature refs 3-6) is given as “can suppress aortic disease”, the “protection in mouse models of MFS or LDS” value (MFS mice; mouse models of MFS or LDS) is given as “afford dramatic protection” and the hemodynamic stress [2] is given as “achieved the predicted lowering of hemodynamic stress”. The impact on survival (vEDS mice; losartan 60 mg/kg/d) was “no impact on survival” and the “protection from dissection or death” value (vEDS mice) was “no evidence of protection from dissection or death”.

With `CC(O)(CS(=O)(=O)c1ccc(F)cc1)C(=O)Nc1ccc(C#N)c(C(F)(F)F)c1` (stereo not drawn) [bicalutamide] the “survival in male mice” value (vEDS mice; bicalutamide alone, male mice) was about 80%.

With `CC(C)NCC(O)COc1cccc2ccccc12` (stereo not drawn) [propranolol] the survival postpartum ([1]; propranolol, after 30 days postpartum, vs. 50% survival) was 46%, the “effect on postpartum survival” value ([1]; propranolol, first 30 days postpartum, mice still lactating) was “does not improve survival; also recorded: did not affect survival” and the “effect on blood pressure” value [2] was “lowers blood pressure; also recorded: decreases in blood pressure”. The improvement in survival (vEDS mice; propranolol 80 mg/kg/d) was “none of these manipulations lead to an improvement in survival”.

In the case of `O=C(c1ccc(F)c(F)c1Nc1ccc(I)cc1F)N1CC(O)([C@@H]2CCCCN2)C1` [cobimetinib], the “effect on blood pressure” value [2] is reported as “Neither cobimetinib nor ruboxistaurin had an effect on blood pressure” and the survival (vEDS mice; cobimetinib 2 mg/kg/day, after 45 days of treatment, 55% survival with no treatment) is reported as 94%.
